# Laboratory results from patent US7416893B2, “Methods for diagnosing drug-resistant cancer cells or for identifying chemotherapeutic agents by measuring anomalous intracellular ion and/or second messenger dynamics” (Atto Bioscience, priority 2002, dated 2008).
# Marks after values point to notes of the source that are not given here.
# What was measured:
# [1] = test system: MCF-7 wt cells; test: Single-cell fura-2 [Ca2+]i imaging, MCF-7 wt drug-sensitive cells; type: cell-based, human; details: for Fold [Ca2+]i increase evoked by agonist: mean ± S.E.M.
# From the text: More specifically, human breast cancer cell (“bc”) lines were obtained from the following sources: wild type (“wt”), estrogen receptor-positive MCF-7 cells were obtained from three different sources: American Type Culture Collection (ATCC, Manassas, Va.), the Lombardi Cancer Center, Georgetown University (Washington, D.C.) and the National Cancer Institute, NIH (Bethesda, Md.) and will be referred to as “wt”, DS MCF-7 throughout the paper. […] Five DR, MCF-7-derived clonal cell lines were used in this study.
# (§6) Cells, grown on 25 mm round, 1 mm-thick glass coverslips were loaded with cell-permeable fura-2 AM (5 uM; Molecular Probes, Eugene, Oreg.) at 37° C. in growth medium for 30-60 min. […] Cells were then thoroughly washed with buffer H/H (Ham's F-10 nutrient mixture supplemented with 20 mM Na-HEPES, pH 7.4) and let sit for 10 min at room temperature to allow complete fura-2 AM de-esterification. […] For each coverslip, 10-99 cells were simultaneously imaged in a given microscopic field and [Ca^2+]1 was recorded from each individual cell in resting and stimulated conditions. Single Ca^2+ profiles were averaged to yield [Ca^2+]1 population means (±S.E.M.) that were plotted versus time.
# (§7) Cells were grown as monolayers on glass supports and labeled with the cell-permeable fluorescent dye, Fura-2 (Molecular Probes, Inc.).
# (§8) Basal [Ca^2+]1 levels and responses to ATP (50-100 uM), UTP (50-100 uM), BK (10 uM), THR (5 uM), or TG (1 uM) were studied in single cells. […] Ca^2+ responses were compared between pairs of DS and DR clones tested in parallel (MCF-7/ADR cells were compared to their parental wt, DS line obtained from Georgetown University; MCF-7/Ad-Vp cells were compared to the NIH wt, DS line; other DR clones were compared mainly with wt, DS MCF-7 cells from ATCC; C6 clones resistant to doxorubicin were compared to their wild type parental line.
# (§9) Cells were labeled with Fura-2 and imaged. After 30-60 sec., the agonists were applied and calcium responses were recorded in single cells. The fold increase in [Ca^2+]1 were calculated and the average values from all the experiments were used in this table.
# (§10) Cells were loaded with Fura-2 and imaged in the absence or presence of EGTA, which is a calcium chelator. Cells were challenged with ATP and Ca responses were recorded. The magnitude and decay t1/2 of the responses were calculated and the respective mean of all the experiments was compared.
# [2] = test system: MDA-MB-231 cells; test: Single-cell fura-2 [Ca2+]i imaging, MDA-MB-231 wt cells; type: cell-based, human; details: for Fold [Ca2+]i increase evoked by agonist: mean ± S.E.M.
# From the text: (§1) More specifically, human breast cancer cell (“bc”) lines were obtained from the following sources: wild type (“wt”), estrogen receptor-positive MCF-7 cells were obtained from three different sources: American Type Culture Collection (ATCC, Manassas, Va.), the Lombardi Cancer Center, Georgetown University (Washington, D.C.) and the National Cancer Institute, NIH (Bethesda, Md.) and will be referred to as “wt”, DS MCF-7 throughout the paper. Wild type, estrogen receptor-negative MDA-MB-231 cells were obtained from the Lombardi Cancer Center, Georgetown University. Five DR, MCF-7-derived clonal cell lines were used in this study. MCF-7/ADR (selected by exposure and resistance to adriamycin, a DNA intercalating agent and DNA topoisomerase II inhibitor; (Vickers, P. J. et al. Mol. Endocrinol. 2:886-892, 1988) were from the Lombardi Cancer Center, Georgetown University; MCF-7/C4 (selected, after mutagenesis, for resistance to camptothecin, a DNA topoisomerase I inhibitor) were obtained from Dr. Y. Pommier (NCI, NIH, Bethesda, Md.) (Fujimori, A. et al. Mol. Pharmacol. 50:1472-1478, 1996); MCF-7/VP cells (selected by exposure and resistance to VP-16 etoposide, a DNA topoisomerase II inhibitor; Schneider, E. et al. Cancer Res. 54:152-158, 1994) were obtained from Dr. E. Schneider, Wadsworth Center, New York State Dept. of Health, Albany, N.Y.; MCF-7/Melph cells (selected by exposure and resistance to melphalan, a DNA alkylating agent; Moscow, J A et al. Br. J. Cancer 68:732-737, 1993) were obtained from Dr. J. Moscow, University of Kentucky, Lexington, Ky.
# (§2) For data mentioned below, [Ca^2+]1 was measured by single-cell fura-2 excitation ratio imaging as previously described (DeBernardi, M. A. et al. Mol Pharmacol 43:451-58, 1993). Cells, grown on 25 mm round, 1 mm-thick glass coverslips were loaded with cell-permeable fura-2 AM (5 uM; Molecular Probes, Eugene, Oreg.) at 37° C. in growth medium for 30-60 min. MCF-7/ADR, MCF-7/Ad-Vp, and C6-B and E cells were difficult to load with fura-2 AM, likely reflecting a high degree of dye extrusion (Homolya, L. et al. J Biol. Chem. 268:21493-96, 1993). […] Cells were then thoroughly washed with buffer H/H (Ham's F-10 nutrient mixture supplemented with 20 mM Na-HEPES, pH 7.4) and let sit for 10 min at room temperature to allow complete fura-2 AM de-esterification. Cells were imaged at room temperature in H/H buffer using an Attofluor RatioVision Digital Fluorescence Microscopy System (Atto Bioscience, Rockville, Md.) equipped with a Zeiss Axiovert 135 microscope and a F-Fluar 40×, 1.3 na, oil-immersion objective. Fura-2 was excited at 334 and 380 nm with the emission monitored at >510 nm; the 334/380 nm excitation ratio increases as a function of the [Ca^2+]1. Calibration was done in vitro with 10 uM fura-2 pentapotassium salt in the presence of 1 mM CaCl2 or 1 mM EGTA and the 334/380 nm excitation ratio was converted to [Ca^2+]1 nM values (Grynkiewicz et al J Biol Chem 260:3440-3450, 1985). For each coverslip, 10-99 cells were simultaneously imaged in a given microscopic field and [Ca^2+]1 was recorded from each individual cell in resting and stimulated conditions. Single Ca^2+ profiles were averaged to yield [Ca^2+]1 population means (±S.E.M.) that were plotted versus time. […]
# (§3) Single cell Ca^2+ dynamics were monitored by single cell fluorescence digital imaging according to the method previously described by DeBernardi, M. A. et al. Mol Phamacol 43: 451-458 (1993). […]
# [3] = test system: MCF-7/ADR cells; test: Single-cell fura-2 [Ca2+]i imaging, MCF-7/ADR drug-resistant cells; type: cell-based, human; details: for Fold [Ca2+]i increase evoked by agonist: mean ± S.E.M.
# Protocol: as §6, §7, §8, §9, §10
# (§11) DR and DS cells were then exposed to the modulators for 2 or 24 hr and challenged with ATP.
# [4] = test system: MCF-7/C4 cells; test: Single-cell fura-2 [Ca2+]i imaging, MCF-7/C4 drug-resistant cells; type: cell-based, human; details: for Fold [Ca2+]i increase evoked by agonist: mean ± S.E.M.
# From the text: as §1, §2, §3
# [5] = test system: human breast cancer cells (DS and DR); test: Single-cell fura-2 [Ca2+]i imaging, DS and DR human breast cancer cells (statements across lines); type: cell-based; details: for Effect on decay kinetics of ATP-evoked response: 2 or 24 hr, VER/CSA in wt or MCF-7/ADR, GEN/PRO in wt or MCF-7/VP; for Effect of acute pre-treatment on ATP-induced [Ca2+]i responses: 10 min pre-treatment, VER 25 uM, CSA 10 uM, GEN 100 uM, PRO 2 mM
# Protocol: as §6, §7, §8
# Human breast cancer cells loaded with Fura-2, were exposed to various agonists and [Ca^2+]1 responses from single cells were recorded.
# as §11
# [6] = test system: MCF-7/AdVp cells; test: Single-cell fura-2 [Ca2+]i imaging, MCF-7/Ad-Vp drug-resistant cells; type: cell-based, human; details: mean ± S.E.M.
# Protocol: as §6, §7, §8, §9
# [7] = test system: MCF-7/VP cells; test: Single-cell fura-2 [Ca2+]i imaging, MCF-7/VP drug-resistant cells; type: cell-based, human; details: mean ± S.E.M.
# Protocol: as §6, §7, §8, §9
# [8] = test system: MCF-7/Melph cells; test: Single-cell fura-2 [Ca2+]i imaging, MCF-7/Melph drug-resistant cells; type: cell-based, human; details: mean ± S.E.M.
# [9] = test system: C6 rat astrocytoma clone A; details: cited from earlier work
# [10] = test system: C6 rat astrocytoma clone E; details: cited from earlier work
# [11] = test system: C6 rat astrocytoma clone B; details: cited from earlier work
# [12] = test system: C6 rat glioblastoma clone E; test: Single-cell fura-2 [Ca2+]i imaging, C6 clone E; type: cell-based
# Protocol: (§4) C6 rat glioblastoma cell lines: Wild type cells and progressively doxorubicin-resistant clones were obtained from Dr. J. Robert, Institute Bergonie, Bordeaux, France. Clones were selected by exposure to increasing doses of doxorubicin: Clone A, 0.001 μg/ml; Clone B, 0.1 μg/ml, and Clone E, 0.5 μg/ml.
# (§5) For data mentioned below, [Ca^2+]1 was measured by single-cell fura-2 excitation ratio imaging as previously described (DeBernardi, M. A. et al. Mol Pharmacol 43:451-58, 1993). Cells, grown on 25 mm round, 1 mm-thick glass coverslips were loaded with cell-permeable fura-2 AM (5 uM; Molecular Probes, Eugene, Oreg.) at 37° C. in growth medium for 30-60 min. […] Cells were imaged at room temperature in H/H buffer using an Attofluor RatioVision Digital Fluorescence Microscopy System (Atto Bioscience, Rockville, Md.) equipped with a Zeiss Axiovert 135 microscope and a F-Fluar 40×, 1.3 na, oil-immersion objective. Fura-2 was excited at 334 and 380 nm with the emission monitored at >510 nm; the 334/380 nm excitation ratio increases as a function of the [Ca^2+]1. […] For each coverslip, 10-99 cells were simultaneously imaged in a given microscopic field and [Ca^2+]1 was recorded from each individual cell in resting and stimulated conditions. […]
# [13] = test system: C6 DR clones A, B and E; test: Single-cell fura-2 [Ca2+]i imaging, all C6 DR clones; type: cell-based, rat; details: all the clones
# Protocol: as §4, §5
# [14] = test system: C6 rat glioblastoma clone A; test: Single-cell fura-2 [Ca2+]i imaging, C6 clone A; type: cell-based
# Protocol: as §4, §5
# [15] = test system: C6 rat glioblastoma clone B; test: Single-cell fura-2 [Ca2+]i imaging, C6 clone B; type: cell-based
# Protocol: as §4, §5
compound,measurement,setting,value
α-thrombin,Fold [Ca2+]i increase evoked by agonist,[1],2.8 ± 0.1 (n = 3) fold
same,Fold [Ca2+]i increase evoked by agonist,[2],13.5 ± 5.1 fold
same,Fold [Ca2+]i increase evoked by agonist,[3],2.8 ± 1.1 (n = 3) fold
same,Fold [Ca2+]i increase evoked by agonist,[4],3.3 ± 0.3 (n = 3) fold
"CCCN(CCC)S(=O)(=O)c1ccc(C(=O)O)cc1 [PRO, probenecid]",Effect on decay kinetics of ATP-evoked response,[5],not affected
same,Effect of acute pre-treatment on ATP-induced [Ca2+]i responses,[5],did not affect
O=c1ccn([C@@H]2O[C@H](COP(=O)(O)OP(=O)(O)OP(=O)(O)O)[C@@H](O)[C@H]2O)c(=O)[nH]1 [UTP],Fold [Ca2+]i increase evoked by agonist,[6],3.7 ± 0.8 fold
same,Fold [Ca2+]i increase evoked by agonist,[1],6.0 ± 1.3 fold
same,Fold [Ca2+]i increase evoked by agonist,[7],5.2 ± 1.9 fold
same,Fold [Ca2+]i increase evoked by agonist,[8],3.7 ± 0.3 fold
same,Fold [Ca2+]i increase evoked by agonist,[3],2.2 ± 0.3 fold
Nc1ncnc2c1ncn2[C@@H]1O[C@H](COP(=O)(O)OP(=O)(O)OP(=O)(O)O)[C@@H](O)[C@H]1O [ATP],Fold [Ca2+]i increase evoked by agonist,[6],4.5 ± 1.2 (n = 12) fold
same,"ATP-evoked [Ca2+]i, fold increase",[1]; EGTA-containing Buffer,6.2 ± 2.1 fold
same,"ATP-evoked [Ca2+]i, fold increase",[1]; Standard Buffer,8.1 ± 2.4^b fold
same,Fold [Ca2+]i increase evoked by agonist,[1],7.9 ± 1.8^a (n = 67) fold
same,"ATP-evoked [Ca2+]i, fold increase",[2]; EGTA-containing Buffer,26.0 ± 8.1 fold
same,"ATP-evoked [Ca2+]i, fold increase",[2]; Standard Buffer,16.5 ± 4.8 fold
same,Fold [Ca2+]i increase evoked by agonist,[2],16.5 ± 4.8 fold
same,Fold [Ca2+]i increase evoked by agonist,[7],4.4 ± 1.2 (n = 11) fold
same,Fold [Ca2+]i increase evoked by agonist,[8],16.0 ± 6.1 fold
same,"ATP-evoked [Ca2+]i, fold increase",[3]; EGTA-containing Buffer,2.4 ± 0.3 fold
same,"ATP-evoked [Ca2+]i, fold increase",[3]; Standard Buffer,3.7 ± 0.7 fold
same,Fold [Ca2+]i increase evoked by agonist,[3],2.9 ± 0.7 (n = 25) fold
same,"ATP-evoked [Ca2+]i, fold increase",[4]; EGTA-containing Buffer,4.9 ± 0.4 fold
same,"ATP-evoked [Ca2+]i, fold increase",[4]; Standard Buffer,5.8 ± 0.9 fold
same,Fold [Ca2+]i increase evoked by agonist,[4],5.9 ± 0.8 (n = 12) fold
same,ATP-increased [Ca2+]i decay kinetics faster in absence than in presence of extracellular Ca2+,"[5]; MCF-7/ADR and MCF-7/C4 cells, EGTA vs standard buffer",≥ 60%
same,[Ca2+]i increase when applied following TG,"[5]; MCF-7/C4, MCF-7/VP and MCF-7/Ad-Vp cells",modest and transient
same,ATP-increased [Ca2+]i decay kinetics faster in Ca2+-free conditions,"[5]; MCF-7 and MDA-MB-231 wt cells, EGTA vs standard buffer",≤ 40%
same,Ca2+ response evoked when applied following TG,[5]; MCF-7 wt and MCF-7/ADR cells,failed to evoke
COc1cccc2c1C(=O)c1c(O)c3c(c(O)c1C2=O)C[C@@](O)(C(=O)CO)C[C@@H]3O[C@H]1C[C@H](N)[C@H](O)[C@H](C)O1 [adriamycin],"Fold resistance (dose to kill 50% of DR cells vs wt, DS cells)",[9],7 fold
same,"Fold resistance (dose to kill 50% of DR cells vs wt, DS cells)",[10],400 fold
same,"Fold resistance (dose to kill 50% of DR cells vs wt, DS cells)",[11],33 fold
"C/C=C(/C)C(=O)O[C@H]1C(C)=C2[C@H]([C@@H]1OC(=O)CCCCCCC)[C@@](C)(OC(C)=O)C[C@H](OC(=O)CCC)[C@@]1(O)[C@H]2OC(=O)[C@@]1(C)O [TG, thapsigargin]",Fold [Ca2+]i increase evoked by agonist,[6],2.4 ± 0.7 fold
same,Fold [Ca2+]i increase evoked by agonist,[1],2.8 ± 0.5 fold
same,Induced [Ca2+]i increase compared with C6 parental cells,[12],much reduced response
same,Fold [Ca2+]i increase evoked by agonist,[2],3.5 ± 0.9 (n = 3) fold
same,"[Ca2+]i decay kinetics after stimulation, compared with wild type cells",[13],comparable or faster
same,Fold [Ca2+]i increase evoked by agonist,[7],1.5 ± 0.1 (n = 6) fold
same,Induced [Ca2+]i increase compared with C6 parental cells,[14],greater
same,Fold [Ca2+]i increase evoked by agonist,[3],2.7 ± 0.7 fold
same,Induced [Ca2+]i increase compared with C6 parental cells,[15],much reduced response
same,Fold [Ca2+]i increase evoked by agonist,[4],3.4 ± 0.8 (n = 7) fold
same,[Ca2+]i increase when applied after ATP,"[5]; all DR clones and MDA-MB-231 wt, except MCF-7 wt and MCF-7/VP",able to increase
same,Fold increase in [Ca2+]i,"[5]; all clones, applied as the first drug",~3 fold
"O=c1c(-c2ccc(O)cc2)coc2cc(O)cc(O)c12 [GEN, genistein]",Effect on decay kinetics of ATP-evoked response,[5],not affected
same,Effect of acute pre-treatment on ATP-induced [Ca2+]i responses,[5],did not affect
